In one data set the target is HasA (Pseudomonas aeruginosa, UniProt G3XD33). The data set can be described thus: Kd determination by fluorescence quenching of apo-HasAp. Conditions: read-out: HasA Kd; apo-HasAp 1 μM, 20 mM sodium phosphate pH 7.4, 25 °C, one-site binding fit. On the procedure:
Wild-type, full-length HasAp was prepared from freshly transformed Escherichia coli BL21(DE3) competent cells as previously described in 4 L of M9 media. Cell pellets were resuspended and lysed with an LM-20 microfluidizer at 18,000 psi. Lysate was clarified by centrifugation and applied to a Q-Sepharose column. HasAp was eluted over a gradient from 20 to 600 mM NaCl in 20 mM Tris-HCl (pH 7.5), and desired fractions determined by SDS-PAGE were pooled. Apo-HasAp was further purified on a Butyl Sepharose Fast Flow column equilibrated with 50 mM sodium phosphate buffer with 0.7 M ammonium sulfate (pH 7.0). Holo-HasAp and other proteins eluted within 2–3 bed volumes of 50 mM sodium phosphate containing 0.5 M ammonium sulfate. Apo-HasAp was then eluted with a linear gradient of sodium phosphate buffer (50–20 mM) containing ammonium sulfate (0.5–0 M). Fractions were analyzed again by SDS-PAGE, and the apo-HasAp was pooled, concentrated (Amicon stirred cell with Ultracel 10 kDa filter), and exchanged into 20 mM sodium phosphate buffer.
Binding affinities were determined using a BioTek Synergy H1 microplate reader in a black 96-well plate. Compounds were solvated in H2O in serial dilutions (100–0.39 μM). One micromolar solution of apo-HasAp 20 mM sodium phosphate buffer (pH 7.4, 25 °C) was titrated into the ligand of interest. Emission spectra were recorded (300–500 nm) after excitation at 280 nm. The decrease in maximum emission was plotted against the ligand concentration (accounting for dilution) and fit to one-site binding using GraphPad Prism v10.

Data set [1] is described as follows: Experimental LogP by reverse-phase HPLC method. The following applies: extrapolated log kw. The data set is classed as physicochemical. The text has this:
LogP was experimentally determined using previously published reverse-phase high-performance liquid chromatography method, and this workflow was adapted using instrumentation described in the previous LC-MS/MS analysis section ([Coutinho et al, 2023]). Briefly, analogs were eluted using isocratic flow with an increasing percentage of organic solvent from 55% to 90% in increments of 5%. The change in the log of the retention factor, log k, was plotted against the fraction of organic solvent. This allowed for extrapolation to the y-intercept, which is when the fraction of organic in the system is zero, or log kw. The same workflow was applied to known compounds with a published logP value to establish a relationship between logP and log kw. This ratio was used to calculate the experimental logP from the log kw of the test compounds. The in silico prediction of logP values was obtained using an online calculator by Molinspiration Cheminformatics (molinspiration.com).

Another data set concerns Caco-2 cells. In words: Caco-2 permeability screening. The data set is classed as in vitro ADME. The following applies: for Papp apical to basolateral / Papp basolateral to apical: 20 μM, 30 and 60 min, average ± SEM. As to the method:
(§1) Caco-2 cells were received from American Type Culture Collection and certified mycoplasma free. Cells were seeded on transwell plates (CoStar, growth area 0.33 cm^2/well, polycarbonate membrane, 0.33 μm pore size) between passage 20 and 27 and then analyzed between 21 and 25 days after wells were seeded to ensure enterocyte-like differentiation. Before assessing permeability, cells were washed once with Hank’s Balanced Salt Solution buffer, pH 7.4, and then incubated at 37 °C for 30 minutes. Transepithelial electrical resistance (TEER) was measured after equilibration before the experiment using an epithelial volt-ohmmeter (EVOM, World Precision Instruments), and cells were used if TEER > 250 Ω × cm^2. Cells were dosed to measure permeability from basolateral and apical sides at a concentration of 20 μM of test compound and 50 μM of Lucifer yellow. Lucifer yellow was used as a “zero permeability” marker to monitor the integrity of cell barrier. Samples were taken at 0 and 60 minutes from the donor side, and samples were taken at 30 and 60 minutes from the receiver side; media was replenished after the 30-minute sample was taken from both chambers. A calibration curve was prepared by serial dilution using the dosing solution in a 1:5 dilution. […] Samples were prepared for LC-MS/MS analysis by taking 100 μL of sample, adding 1 μM internal standard (GaSal-4 or GaSal-5), and crashing with 400 μL of methanol. Samples were centrifuged at 3000 rpm at 4 °C for 30 minutes, 200 μL of supernatant was transferred to a new plate, and 100 μL of water was added to each sample. Samples were vortexed and analyzed by LC-MS/MS as described earlier. […] To preliminarily evaluate organic cation transporter 1 (OCT1) or P-glycoprotein (P-gp)-dependent transport, transport studies were conducted with and without a 1 μM “inhibitor cocktail” alongside GaSal. […] The Papp for basolateral to apical, Papp apical to basolateral, and efflux ratio were reported for each compound. In order to calculate Papp, the concentration in the sampled time point was determined from the calibration curve and then converted to μg based on the volume of the chamber (0.2 mL for apical, 1.0 mL for basolateral). […] The calculation of Papp was determined using eq. […] Data are presented as the average ± SEM for each compound analyzed as n = 3 on 2 different days with 2 different cell line passages, for n = 6 total. GaSal is n = 3 on 3 different cell line passages since this was used as a test compound for the inhibition cocktail experiments.

The test system of a further data set is PL proteins. Conditions: 2012, cited from earlier work; for PL protein bound: ref Pike and Skuterud, 1982, Zhang et al.
For data set [2] the following is noted: calculated B/P, cited from earlier work.
Data set [3] is described as follows: Microsomal clearance assay. Format: in vitro ADME, rat. Conditions: 2 μM, rat liver microsomes. On the procedure:
Library compounds were tested in triplicate at a concentration of 2 μM and incubated in 0.1 M potassium phosphate buffer containing 12 mM MgCl2 and 8 mM NADPH at pH 7.4 with either 0.5 mg/mL of Sprague–Dawley liver microsomes (Invitrogen). Samples were incubated for 0, 3, 7, 12, 20, and 30 minutes. At the designated time point, the incubation reaction was stopped by adding 100 μL of ACN containing 1 μM of either GaSal-4 or GaSal-5 as the internal standards. […] 7-Ethoxycoumarin (Sigma) was used as a positive control in this experiment. Intrinsic clearance (CLint) was calculated using eq. 2:(2) CLint=0.693/InVitroT1/2∗IncubationVolume/mgofmicrosomes∗45mgmicrosomes/gramofliver∗45gramsliver/kgofbodyweight
The average CLint ± SEM was determined for each compound for 2 replicates per time point.
(In general: Microsomes from liver hold many membrane-bound enzymes, among them those of drug oxidation.)

A short description of a further data set: S9 clearance assay. Format: in vitro ADME. Conditions: Sprague-Dawley, pH 7.4, S9 rat liver fraction. As to the method:
Select library compounds were tested in triplicate at a concentration of 2 μM and incubated in 0.1 M potassium phosphate buffer containing 12 mM MgCl2 and 8 mM NADPH at pH 7.4 with 2.5 mg/mL of Sprague–Dawley S9 (Invitrogen). Incubations contained a final concentration of 2.5 mM UDP glucuronic acid, 0.10 mM adenosine 3’-phosphate 5’-phosphosulfate, 0.5 mM acetyl CoA, and 50 μg/mg protein alamethicin. All co-factors were from Sigma. Samples were incubated for 0, 3, 7, 12, 20, and 30 minutes. At the designated time point, the incubation reaction was stopped by adding 100 μL of ACN containing 1 μM of either GaSal-4 or GaSal-5 as the internal standard. […] A hundred microliter of supernatant was taken for LC-MS/MS analysis. 7-Ethoxycoumarin (Sigma) was used as a positive control in this experiment. Clearance was calculated according to eq. 3:(3) CLint=0.693/InVitroT1/2∗IncubationVolume/mgofS9∗165mgS9/gramofliver∗45gramsliver/kgofbodyweight
The average CLint ± SEM was determined for each compound for 3 replicates per time point.

The nature of data set [4]: Caco-2 permeability screening. The data set is classed as in vitro ADME. Conditions: human, Caco-2, pH 7.4, known drug standards. On the procedure:
as §1
(In general: Caco-2 cells form a polarised layer with tight junctions and transporters.)

Read-outs that look alike come from different tables or passages of the source.

Chain of HasA (G3XD33 entry or part of it): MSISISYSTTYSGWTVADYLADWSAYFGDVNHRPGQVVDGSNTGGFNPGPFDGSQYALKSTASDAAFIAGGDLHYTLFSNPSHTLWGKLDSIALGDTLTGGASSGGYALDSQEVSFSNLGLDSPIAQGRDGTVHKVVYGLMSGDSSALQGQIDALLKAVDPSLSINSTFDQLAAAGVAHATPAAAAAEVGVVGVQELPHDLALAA

The Kd is the constant that tells how readily two partners part at equilibrium. Broadly, the logP is a log measure of how a compound divides between an organic and an aqueous phase. On to `CN(C)CCOc1ccc(C=Nc2ccccc2N=Cc2ccc(OCCN(C)C)cc2O)c(O)c1.[Ga+3]` [GaSal-2], for which, at HasA, the equilibrium dissociation constant (Kd) stood at 1.2 ± 0.3 µM. Further, the logP in data set [1] is 3.7. Also, in the data set on Caco-2 cells, the “Papp apical to basolateral” value is “Undetected” and the “Papp basolateral to apical” value was “Undetected”.

As for `CC(=Nc1ccccc1N=Cc1ccc(OCCN(C)C)cc1O)c1ccccc1O.[Ga+3]` [GaSal-7], the Kd on HasA turned out to be 5 ± 0.9 µM. Moreover, the log partition coefficient (logP) in data set [1] was 3.27. Further, in the data set with Caco-2 cells, the “Papp apical to basolateral” value is “Undetected” and the “Papp basolateral to apical” value was “Undetected”.

On to `CN(C)CCC=C1c2ccccc2CCc2ccccc21` [amitriptyline], for which the PL protein bound in the data set on PL proteins was more than 90%.

Turning to `[Sr+2]` [Strontium], the “KRBC/PL (B/P ratio)” value in data set [2] (ref (Cao et al., 2023)) is listed as 0.42.

For `[As]` [Arsenic], in data set [2] (ref (Cao et al., 2023)), the “KRBC/PL (B/P ratio)” value is recorded as 1.46.

`[Ni]` [Nickel]: in data set [2] (ref (Cao et al., 2023)), the “KRBC/PL (B/P ratio)” value is listed as 0.50.

As a reminder, the half-life is the time in which the quantity being followed falls by half. For `CCOc1ccc2ccc(=O)oc2c1` [7-ethoxycoumarin, 7-Ethoxycoumarin, reference compound], the “concentration change over 30 minutes in microsomes” value in data set [3] is “metabolized by the microsomes”. In the data set “S9 clearance assay” (average ± SEM n = 3), this compound showed a half-life at 2 µM of 25.2 ± 7.8 min. Further, the CLint scaled at 2 μM in the data set “S9 clearance assay” (average ± SEM n = 3, read-out: Predicted CLint (converted)) was 190 mL/min/kg.

Consider `CN(C)CCCN1c2ccccc2CCc2ccccc21` [imipramine], for which the PL protein bound in the data set with PL proteins is on record as more than 90%.

Turning to `[Mn+2]` [Manganese], the “KRBC/PL (B/P ratio)” value in data set [2] (ref (Smith et al., 2007)) is reported as 0.2.

As for `CN(Cc1cnc2nc(N)nc(N)c2n1)c1ccc(C(=O)N[C@@H](CCC(=O)O)C(=O)O)cc1` [Methotrexate, reference compound], the efflux ratio at 60 min, 20 μM in data set [4] (read-out: Efflux Ratio B to A/ A to B) was found to be 1.46. Moreover, the Papp A→B at 60 min, 20 μM in data set [4] (read-out: Papp Apical to Basolateral) worked out at 0.02 ± 0.001 ×10⁻⁶ cm/s. Also, the Papp B→A at 60 min, 20 μM in data set [4] (read-out: Papp Basolateral to Apical) was 0.03 ± 0.01 ×10⁻⁶ cm/s. For the same compound, the “Permeability Ranking” value in the data set on Caco-2 cells (Caco-2) is on record as “Not Permeable”. Further, the expected protein binding in the data set on PL proteins (control compounds, ref Zhang et al) is 50%.

(Values after PMC12264554, “Application of preclinical absorption, distribution, metabolism, elimination in vitro techniques for the characterization and compound library optimization of novel antibiotic gallium salophen” (Drug Metabolism and Disposition, 2025).)
